Nine compounds from PubChem BioAssay AID1259407 (Chemical Carcinogenesis Research Information System (CCRIS), 2018) can be followed below.

The source made the active and inactive calls. How the calls were made is not given here.

This series deals with CCRIS mutagenicity, Ames/micronucleus/aberration tests. Briefly: CCRIS mutagenicity studies.
The mark [1] stands for this setting: Test System: AMES SALMONELLA TYPHIMURIUM, Strain/Indicator: TA98, Metabolic Activation: NONE, Method: PREINCUBATION
Where [2] appears, read: Test System: AMES SALMONELLA TYPHIMURIUM, Strain/Indicator: TA100, Metabolic Activation: NONE, Method: PREINCUBATION
Where [3] appears, read: Test System: AMES SALMONELLA TYPHIMURIUM, Strain/Indicator: TA98, Metabolic Activation: NONE, Method: STANDARD PLATE.
The mark [4] stands for this setting: Test System: AMES SALMONELLA TYPHIMURIUM, Strain/Indicator: TA98, Metabolic Activation: RAT, LIVER, S-9, AROCLOR 1254, Method: STANDARD PLATE.
The mark [5] stands for this setting: Test System: AMES SALMONELLA TYPHIMURIUM, Strain/Indicator: TA100, Metabolic Activation: NONE, Method: STANDARD PLATE.
Setting [6] is: Test System: AMES SALMONELLA TYPHIMURIUM, Strain/Indicator: TA100, Metabolic Activation: RAT, LIVER, S-9, AROCLOR 1254, Method: STANDARD PLATE.
Setting [7] is: Test System: AMES SALMONELLA TYPHIMURIUM, Strain/Indicator: TA1535, Metabolic Activation: NONE, Method: STANDARD PLATE.
Where [8] appears, read: Test System: AMES SALMONELLA TYPHIMURIUM, Strain/Indicator: TA1535, Metabolic Activation: RAT, LIVER, S-9, AROCLOR 1254, Method: STANDARD PLATE.

Regarding `O=C(O)C1C(C(=O)O)C2(Cl)C(Cl)=C(Cl)C1(Cl)C2(Cl)Cl` (stereo not drawn), the mutagenic call (End Point: IN VITRO CHROMOSOMAL ABERRATIONS, Test System: CHINESE HAMSTER LUNG FIBROBLAST CELLS (CHL/IU), Metabolic Activation: RAT, LIVER, S-9, PHENOBARBITAL AND 5,6-BENZOFLAVONE) was “active; positive (structural changes)”; the mutagenic call (Test System: AMES SALMONELLA TYPHIMURIUM, Strain/Indicator: TA98, Metabolic Activation: HAMSTER, LIVER, S-9, AROCLOR 1254, Method: PREINCUBATION) was “inactive; negative”; the mutagenic call under setting [1] was “inactive; negative”; the mutagenic call (Test System: AMES SALMONELLA TYPHIMURIUM, Strain/Indicator: TA98, Metabolic Activation: RAT, LIVER, S-9, AROCLOR 1254, Method: PREINCUBATION) was “inactive; negative”; the mutagenic call (Test System: AMES SALMONELLA TYPHIMURIUM, Strain/Indicator: TA100, Metabolic Activation: HAMSTER, LIVER, S-9, AROCLOR 1254, Method: PREINCUBATION) is “inactive; negative”; the mutagenic call under setting [2] is “inactive; negative”. Besides, the mutagenic call (Test System: AMES SALMONELLA TYPHIMURIUM, Strain/Indicator: TA100, Metabolic Activation: RAT, LIVER, S-9, AROCLOR 1254, Method: PREINCUBATION) was “inactive; negative”; the mutagenic call (Test System: AMES SALMONELLA TYPHIMURIUM, Strain/Indicator: TA1535, Metabolic Activation: HAMSTER, LIVER, S-9, AROCLOR 1254, Method: PREINCUBATION) is “inactive; negative”; the mutagenic call (Test System: AMES SALMONELLA TYPHIMURIUM, Strain/Indicator: TA1535, Metabolic Activation: NONE, Method: PREINCUBATION) was “inactive; negative”; the mutagenic call (Test System: AMES SALMONELLA TYPHIMURIUM, Strain/Indicator: TA1535, Metabolic Activation: RAT, LIVER, S-9, AROCLOR 1254, Method: PREINCUBATION) is “inactive; negative”; the mutagenic call (Test System: AMES SALMONELLA TYPHIMURIUM, Strain/Indicator: TA1537, Metabolic Activation: HAMSTER, LIVER, S-9, AROCLOR 1254, Method: PREINCUBATION) is “inactive; negative”; the mutagenic call (Test System: AMES SALMONELLA TYPHIMURIUM, Strain/Indicator: TA1537, Metabolic Activation: NONE, Method: PREINCUBATION) is “inactive; negative”. For the same compound, the mutagenic call by setting is: (Test System: AMES SALMONELLA TYPHIMURIUM, Strain/Indicator: TA1537, Metabolic Activation: RAT, LIVER, S-9, AROCLOR 1254, Method: PREINCUBATION) “inactive; negative”; (Test System: MOUSE LYMPHOMA, Strain/Indicator: L5178Y (TK+/TK-), Metabolic Activation: NONE, Method: MICROWELL) “active; positive”; (Test System: MOUSE LYMPHOMA, Strain/Indicator: L5178Y (TK+/TK-), Metabolic Activation: NONE, Method: SUSPENSION/PLATE) “active; positive”; (Test System: MOUSE LYMPHOMA, Strain/Indicator: L5178Y (TK+/TK-), Metabolic Activation: S-9, Method: MICROWELL) “active; positive”.

As for `C=C(C)C1C=C2C(COC(=O)CCCCCCCCCCCCCCCCC)=CC=C2C(C)=CC1` (stereo not drawn), the mutagenic call runs as follows: under setting [3], “inactive; negative”; under setting [4], “inactive; negative”; under setting [5], “active; positive”; under setting [6], “active; positive”.

Take `COc1cc(-c2oc3cc(O)cc(O)c3c(=O)c2O)ccc1O`: the mutagenic call (Test System: AMES SALMONELLA TYPHIMURIUM, Strain/Indicator: TA97, Metabolic Activation: NONE, Method: STANDARD PLATE) was “inactive; negative”; the mutagenic call (Test System: AMES SALMONELLA TYPHIMURIUM, Strain/Indicator: TA97, Metabolic Activation: RAT, LIVER, S-9, AROCLOR 1254, Method: STANDARD PLATE) was “inactive; negative”; the mutagenic call under setting [3] was “inactive; negative”; the mutagenic call under setting [4] was “inactive; negative”; the mutagenic call under setting [5] is “inactive; negative”; the mutagenic call under setting [6] was “inactive; negative”. Further, the mutagenic call reads like this: (Test System: AMES SALMONELLA TYPHIMURIUM, Strain/Indicator: TA102, Metabolic Activation: NONE, Method: STANDARD PLATE) “inactive; negative”; (Test System: AMES SALMONELLA TYPHIMURIUM, Strain/Indicator: TA102, Metabolic Activation: RAT, LIVER, S-9, AROCLOR 1254, Method: STANDARD PLATE) “inactive; negative”; under setting [7], “inactive; negative”; under setting [8], “inactive; negative”; (Test System: AMES SALMONELLA TYPHIMURIUM, Strain/Indicator: TA1538, Metabolic Activation: NONE, Method: STANDARD PLATE) “inactive; negative”; (Test System: AMES SALMONELLA TYPHIMURIUM, Strain/Indicator: TA1538, Metabolic Activation: RAT, LIVER, S-9, AROCLOR 1254, Method: STANDARD PLATE) “inactive; negative”.

`NC(=O)Nc1cccc2cccnc12`: for the setting “Test System: AMES SALMONELLA TYPHIMURIUM, Strain/Indicator: TA100, Metabolic Activation: S-9, Method: PREINCUBATION”, the mutagenic call is “inactive; negative”.

With `CC(C)(C)C1=CC(=CC=C2C=C(C(C)(C)C)C(=O)C(C(C)(C)C)=C2)C=C(C(C)(C)C)C1=O`, the mutagenic call under setting [1] is “inactive; negative”; the mutagenic call (Test System: AMES SALMONELLA TYPHIMURIUM, Strain/Indicator: TA98, Metabolic Activation: RAT, LIVER, S-9, Method: PREINCUBATION) was “inactive; negative”; the mutagenic call under setting [2] was “inactive; negative”; the mutagenic call (Test System: AMES SALMONELLA TYPHIMURIUM, Strain/Indicator: TA100, Metabolic Activation: RAT, LIVER, S-9, Method: PREINCUBATION) was “inactive; negative”.

With `N#C/C(=C/C=C/c1ccccc1)c1ccc(F)cc1`, the mutagenic call by setting is: (Test System: AMES SALMONELLA TYPHIMURIUM, Strain/Indicator: TA97A, Metabolic Activation: NONE, Method: STANDARD PLATE) “active; positive”; under setting [5], “inactive; negative”.

With `C=C(Br)CCl`, the mutagenic call (Test System: AMES SALMONELLA TYPHIMURIUM, Strain/Indicator: TA100, Metabolic Activation: RAT, LIVER, MICROSOMES, PHENOBARBITAL, NADPH COFACTORS, Method: STANDARD PLATE) was “active; positive” and the mutagenic call (Test System: AMES SALMONELLA TYPHIMURIUM, Strain/Indicator: TA100, Metabolic Activation: RAT, LIVER, MICROSOMES, PHENOBARBITAL, Method: STANDARD PLATE) is “inactive; negative”.

For `N[C@@H](CSC(Cl)=C(Cl)Cl)C(=O)O`, the mutagenic call runs as follows: under setting [2], “active; positive”; under setting [5], “active; positive”; (Test System: AMES SALMONELLA TYPHIMURIUM, Strain/Indicator: TA100, Metabolic Activation: RAT, KIDNEY, S-9, AROCLOR 1254, Method: STANDARD PLATE) “active; positive”; (Test System: AMES SALMONELLA TYPHIMURIUM, Strain/Indicator: TA2638, Metabolic Activation: NONE, Method: PREINCUBATION) “inactive; negative”.

`CCOC(=O)C(C)=O`: the mutagenic call runs as follows: under setting [3], “inactive; negative”; under setting [4], “inactive; negative”; under setting [5], “inactive; negative”; under setting [6], “inactive; negative”; under setting [7], “inactive; negative”; under setting [8], “inactive; negative”. The mutagenic call (Test System: AMES SALMONELLA TYPHIMURIUM, Strain/Indicator: TA1537, Metabolic Activation: NONE, Method: STANDARD PLATE) was “inactive; negative” and the mutagenic call (Test System: AMES SALMONELLA TYPHIMURIUM, Strain/Indicator: TA1537, Metabolic Activation: RAT, LIVER, S-9, AROCLOR 1254, Method: STANDARD PLATE) is “inactive; negative”.
